Data taken from patent US11865128B2, “Aminoglycosides and uses thereof in treating genetic disorders” (Technion Research & Development Foundation Limited, priority 2010, dated 2024).
In brackets after ≈: the same amount, converted by molar mass. Entries after “also recorded” stand apart in the source; their conditions may differ. Where two headings read alike, the source gives them in different places.

Legend:
B. subtilis ATCC6633 = assay: Antibacterial activity MIC, double-microdilution; type: cell-based, Bacillus subtilis; details: read-out: Antibacterial activity MIC B. subtilis ATCC6633
E. coli R477/100 = assay: Antibacterial activity MIC, double-microdilution; type: cell-based, Escherichia coli; details: read-out: Antibacterial activity MIC E. coli R477/100
[1] = target: Prokaryotic system (prokaryotic ribosome); assay: Prokaryotic translation inhibition, coupled transcription/translation, luciferase detection; type: biochemical
Protocol: Prokaryotic and eukaryotic translation inhibition was quantified in coupled transcription/translation assays by using active luciferase detection, performed as described hereinabove. […] All the experiments were performed in duplicates and analogous results were obtained in three different experiments. In all biological tests, all tested aminoglycosides were in their sulfate salt forms. The concentrations reported refer to that of the free amine form of each aminoglycoside.
(§1) In all biological experiments conducted, all tested aminoglycosides were in their sulfate salt forms. The concentrations reported in Table 3 refer to that of the free amine form of each aminoglycoside. Prokaryotic and eukaryotic translation inhibition was quantified in coupled transcription/translation assays as previously described. The half-maximal concentration (IC50) values were obtained from fitting concentration response curves to the data of at least three independent experiments, using GraFit 5 software. All the experiments were performed in duplicates and analogous results were obtained in three different experiments.

[2] = target: Eukaryotic system (eukaryotic cytoplasmic ribosome); assay: Eukaryotic translation inhibition, coupled transcription/translation, luciferase detection; type: biochemical; details: for Prokaryotic versus Eukaryotic selectivity IC50^Euk/IC50^Pro: ratio of eukaryotic to prokaryotic translation inhibition IC50; for more specific to the eukaryotic ribosome than parent (NB30 or NB54): comparison of eukaryotic IC50 values with parent structure
Source text: Prokaryotic and eukaryotic translation inhibition was quantified in coupled transcription/translation assays by using active luciferase detection, performed as described hereinabove. […] In all biological tests, all tested aminoglycosides were in their sulfate salt forms. The concentrations reported refer to that of the free amine form of each aminoglycoside.
as §1, with “software.” for “software. All the experiments were performed in duplicates and analogous results were obtained in three different experiments.”

[3] = Cell toxicity LC50 in HFF cells; type: cell-based; details: human
Protocol: (§2) In order to ensure suitable cell viability for each of the tested compounds at the concentrations tested, cell toxicity was evaluated for each compound by measuring the half-maximal-lethal concentration value (LC50 values) in HEK-293 and HFF (human foreskin fibroblasts) cells.
(§3) The percentages of cell viability were calculated as the ratio between the numbers of living cells in cultures grown in the presence of the tested compounds, versus cultures grown under the identical protocol but without the tested compound. The results represent averages of at least three independent experiments.
(§4) The half-maximal lethal concentration (LC50) values were obtained from fitting concentration-response curves to the data of at least three independent experiments, using GraFit 5 software.

[4] = Cell toxicity LC50 in HEK-293 cells; type: cell-based; details: human
Protocol: as §2, §3, §4

[5] = system: nonsense mutation constructs R3X, R245X, G542X, W1282X, Q70X, R3381X (PCDH15, CFTR, IDUA, Dystrophin); assay: In vitro stop codon readthrough assay, p2Luc dual luciferase, TNT reticulocyte lysate; type: biochemical; details: cell-free, mutations tested; comparison in words from FIGS. 2, 3, 5-7
Source text: DNA fragments derived from PCDH15, CFTR, Dystrophin and IDUA cDNAs, including the tested nonsense mutation or the corresponding wild type (wt) codon, and four to six upstream and downstream flanking codons were created by annealing following pairs of complementary oligonucleotides:
The fragments were inserted in frame into the polylinker of the p2Luc plasmid between either BamHI and SacI (p.R3X and p.R245X), or SalI and SacI (all the rest) restriction sites.
For the in vitro readthrough assays, the obtained plasm ids, with addition of the tested aminoglycosides were transcribed and translated using the TNT Reticulocyte Lysate Quick Coupled Transcription/Translation System. Luciferase activity was determined after 90 minutes of incubation at 30° C., using the Dual Luciferase Reporter Assay System (Promega™).
Initially, the influence of the chiral C5″-methyl group on readthrough potential was evaluated on the pseudo-trisaccharides NB118 and NB119 by using a dual luciferase reporter assay system as described hereinabove. Briefly, DNA fragments were cloned between BamHI and SacI restriction sites of the p2luc vector and the obtained constructs were transcribed and translated using TNT quick coupled transcription/translation system. The amount of the translated products was evaluated using the dual luciferase reporter assay system and used to calculate the suppression level.

[6] = system: HFF (human foreskin fibroblasts) cells; assay: Cell toxicity LC50 in HFF cells; type: cell-based
Protocol: as §2, §3, §4

HEK-293 cells = assay: Cell toxicity LC50 in HEK-293 cells; type: cell-based
Protocol: as §2, §3, §4

[7] = system: nonsense mutation constructs R3X, R245X, Q70X, W1282X, G542X in HEK-293 cells; assay: Ex vivo stop codon readthrough assay, p2luc constructs transfected to HEK-293 cells; type: cell-based, human; details: ex vivo in HEK-293, all the mutations tested, FIGS. 4, 8-10
Protocol: For the ex vivo readthrough assays, the constructs harboring the R3X, R245X, Q70X and W1282X mutations were transfected to HEK-293 cells with Lipofectamine 2000 (Invitrogen) and addition of the tested compounds was performed 6 hours post transfection. The cells were harvested following 16 hours of incubation with the tested aminoglycosides. Stop codon readthrough was calculated as previously described (see, Grentzmann, G. et al., RNA, 1998, 4, p. 479).
The constructs were transfected into a human embryonic kidney cell line (HEK-293) and incubated with varying concentrations of NB122, NB123, NB54 and the control drug gentamicin, and the results are presented in FIGS. 4A-D.
As described hereinabove, the constructs of p2luc plasmid harboring the R3X, R245X, Q70X and W1282X mutations were transfected to HEK-293 cells using lipofectamine2000 and the tested compounds were added 6 hours post transfection. Cells were harvested after 16 hours incubation and luciferase activity was determined using the dual luciferase reporter assay system (Promega™). Stop codon readthrough was calculated as described previously, and the results are averages of at least three independent experiments.

[8] = Bacillus subtilis, ATCC6633, Table 1, free amine concentration, sulfate salts tested
[9] = Escherichia coli, R477/100, Table 1
[10] = Table 1, read-out: Translation inhibition Prokaryotic system IC50
[11] = Table 3, read-out: Translation Inhibition IC50^Pro
[12] = Table 1, read-out: Translation inhibition Eukaryotic System IC50
[13] = Table 3, read-out: Translation Inhibition IC50^Euk
[14] = HFF (human foreskin fibroblast) cells, Table 1, read-out: Cell toxicity LC50 HFF
[15] = HEK-293 cells, Table 1, read-out: Cell toxicity LC50 HEK-293
[16] = Table 2, read-out: Translation Inhibition Prokaryotic system IC50
[17] = Table 2, read-out: Translation Inhibition Eukaryotic System IC50

Compound | MIC (B. subtilis ATCC6633; [8]) | MIC (E. coli R477/100; [9]) | IC50 [1, 10] | IC50 [1, 11] | IC50 [2, 12] | IC50 [2, 13] | Prokaryotic versus Eukaryotic selectivity IC50^Euk/IC50^Pro [2] | CC50 [3, 14] | CC50 [4, 15] | in vitro readthrough activity (stop codon suppression level) [5] | observed efficacy of aminoglycoside-induced readthrough, order [7] | other results
C[C@@H](N)[C@H]1O[C@@H](OC2C(O)[C@H](N)CC(N)[C@H]2O[C@H]2OC(CO)[C@@H](O)C(O)C2N)C(O)C1O (stereo partly drawn) [NB119, 5-O-(5-Amino-5,6-dideoxy-β-D-allofuranosyl)-paromamine] | 78 µM | 4990 µM (≈ 2340 µg/mL) | 2.13 ± 0.478 µM | 2.13 ± 0.478 µM | 28 ± 1.1 µM | 28 ± 1.1 µM | 13 | 20100 ± 600 µM | 19800 ± 400 µM | comparatively small | – | –
Gentamicin [reference compound] | – | – | 0.028 ± 0.004 µM | 0.028 ± 0.004 µM | 62 ± 9 µM | 62 ± 9 µM | 2,214 | – | – | – | NB127 NB128>NB84>gentamicin | MIC (B. subtilis ATCC6633; Table 1, free amine concentration, sulfate salts tested): <0.75 µM; MIC (B. subtilis ATCC6633; Table 2): <0.75 µM; MIC (E. coli R477/100; Table 1): 6 µM; MIC (E. coli R477/100; Table 2): 6 µM; IC50 [1, 16]: 0.028 ± 0.004 µM; more selective to prokaryotic versus eukaryotic ribosome [2]: 2,214 fold; IC50 [2, 17]: 62 ± 9 µM; CC50 ([6]; Table 1): 3200 ± 300 µM; CC50 ([6]; Table 2): 3210 ± 310 µM; CC50 (HEK-293 cells; Table 1): 2500 ± 300 µM; CC50 (HEK-293 cells; Table 2): 2650 ± 540 µM; observed efficacy of aminoglycoside-induced readthrough, order ([7]; listed as gentamicin): NB122≥NB123>NB54>gentamicin; also recorded: NB124>NB125>NB74>gentamicin
C[C@@H](N)[C@H]1O[C@@H](OC2C(O)[C@H](NC(=O)[C@@H](O)CCN)CC(N)[C@H]2O[C@H]2OC(CO)[C@@H](O)C(O)C2N)C(O)C1O (stereo partly drawn) [NB123, 5-O-(5-Amino-5,6-dideoxy-β-D-allofuranosyl)-1-N—[(S)-4-amino-2-hydroxy-butanoyl] paromamine] | 33 µM | 1060 µM (≈ 602 µg/mL) | 0.811 ± 0.059 µM | 0.811 ± 0.059 µM | 4.6 ± 0.6 µM | 4.6 ± 0.6 µM | 5.7 | 19300 ± 1500 µM | 13900 ± 1300 µM | – | NB122≥NB123>NB54>gentamicin | –
C[C@H](N)[C@H]1O[C@@H](OC2C(O)[C@H](NC(=O)[C@@H](O)CCN)CC(N)[C@H]2O[C@H]2OC(CO)[C@@H](O)C(O)C2N)C(O)C1O (stereo partly drawn) [NB122, 5-O-(5-Amino-5,6-dideoxy-α-L-talofuranosyl)-1-N—[(S)-4-amino-2-hydroxy-butanoyl]paromamine] | 33 µM | 1070 µM (≈ 608 µg/mL) | 2.27 ± 0.196 µM | 2.27 ± 0.196 µM | 5.2 µM | 5.2 ± 0.7 µM | 2.3 | 8100 ± 1400 µM | 10100 µM | induced the highest level of readthrough | NB122≥NB123>NB54>gentamicin | more specific to the eukaryotic ribosome than parent (NB30 or NB54) [2]: 4.6 fold
NC[C@@H]1O[C@H](O[C@H]2[C@@H](O)[C@H](O[C@@H]3[C@@H](O)[C@H](N)C[C@H](N)[C@H]3O[C@H]3O[C@H](CO)[C@@H](O)[C@H](O)[C@H]3N)O[C@@H]2CO)[C@H](N)[C@@H](O)[C@@H]1O [Paromomycin, reference compound] | 1.2 µM | 22 µM (≈ 13.5 µg/mL) | 0.051 ± 0.005 µM | 0.051 ± 0.005 µM | 57 ± 4 µM | 57 ± 4 µM | 1,118 | – | – | – | – | more selective to prokaryotic versus eukaryotic ribosome [2]: 1,118 fold; CC50 [3]: 3100 ± 400 µM; CC50 [4]: 4100 ± 500 µM
NC1C(OCOC2C(N)[C@H](O[C@H]3C(N)C[C@H](N)C(O)C3O)OC(CO)[C@@H]2O)[C@H](O)C(CO)O[C@@H]1O[C@@H]1C(N)C[C@@H](N)C(O)C1O (stereo partly drawn) [NB33, reference compound] | – | – | – | – | – | – | about 2 | – | – | essentially no readthrough activity; also recorded: almost no readthrough activity | – | –
C[C@H](N)[C@H]1O[C@@H](OC2C(O)[C@H](N)CC(N)[C@H]2O[C@H]2OC(CO)[C@@H](O)C(O)C2N)C(O)C1O (stereo partly drawn) [NB118, 5-O-(5-Amino-5,6-dideoxy-α-L-talofuranosyl)-paromamine] | 83 µM | 2660 µM (≈ 1250 µg/mL) | 1.96 ± 0.206 µM | 1.96 ± 0.206 µM | 16 µM | 15.5 ± 1.3 µM | 7.9 | 21800 ± 500 µM | 23500 µM | significantly better than that of the clinical drug gentamicin | – | more specific to the eukaryotic ribosome than parent (NB30 or NB54) [2]: 1.9 fold
C[C@H](N)[C@H]1O[C@@H](OC2C(O)[C@H](N)CC(N)[C@H]2O[C@H]2OC([C@@H](C)O)[C@@H](O)C(O)C2N)C(O)C1O (stereo partly drawn) [NB124, 6′-(R)-Methyl-5-O-(5-amino-5,6-dideoxy-α-L-talofuranosyl)-Paromamine] | – | – | – | 1.1 ± 0.185 µM | – | 1.49 ± 0.08 µM | 1.3 | – | – | improved significantly compared to that of the clinical drug gentamicin | NB124>NB125>NB74>gentamicin | MIC (B. subtilis ATCC6633; Bacillus subtilis, ATCC6633, Table 2): 96 µM (≈ 46.3 µg/mL); MIC (E. coli R477/100; Escherichia coli, R477/100, Table 2): 768 µM (≈ 371 µg/mL); IC50 [1, 16]: 1.1 ± 0.185 µM; IC50 [2, 17]: 1.49 ± 0.08 µM; CC50 ([3]; HFF (human foreskin fibroblast) cells, Table 2, read-out: Cell toxicity LC50 HFF): 4750 ± 330 µM; CC50 ([4]; HEK-293 cells, Table 2, read-out: Cell toxicity LC50 HEK-293): 5400 ± 450 µM
